Experimental data taken from patent US9198979B2, “Thiazolidine linker for the conjugation of drugs to antibodies” (Philogen S.P.A., priority 2010, dated 2015).
Like-named read-outs stand apart in the source and are kept apart here.

Columns and labels:
HEK293T cells = experiment: In vitro toxicity assay (MTS cell proliferation assay), HEK293T; assay type: cell-based, human; conditions: ~72 hours
Description: HEK293T cells were grown in RPMI (Gigbo-Invitrogen) medium supplemented with 10% FCS and antibiotics and maintained at 37° C. in 5% CO2.
(§1) For the in vitro toxicity assay 30000 cells/well (final volume 100 μl) were seeded in a 96 well plate with a defined peptide dilution (by adding 1.5 μl of peptide solution to 500 μl of cell suspension) and incubated at 37° C. in 5% CO2.
(§2) After ˜72 hours, cell viability was measured using the “Cell Titer 96®Aqueous One Solution Cell Proliferation Assay” (Promega), performed according to the manufacturers instruction. Briefly: 20 μl of MTS solution were added to each well, the plate was then incubated at 37° C. for 2 hour. The read out of the assay is the absorbance at 490 nm.

F9 teratocarcinoma cells = experiment: In vitro toxicity assay (MTS cell proliferation assay), F9; assay type: cell-based, murine; conditions: F9, ~72 hours
Description: as §1, §2
(§3) The experiments were then extended to F9 and HL60 cells in the same manner.
Cem-CH2—SH cell killing ability was evaluated by cytotoxicity assays: one non-tumor cell line (human embryonic kidney cells, HEK 293T) and two tumor cell lines, murine F9 teratocarcinoma cells (F9) and human promyelocytic leukemia cells (HL60), were incubated over 3 days with different concentrations of non-modified cemadotin and the derivative Cem-CH2—SH (FIG. 20).

HL60 cells = experiment: In vitro toxicity assay (MTS cell proliferation assay), HL60; assay type: cell-based, human; conditions: HL60, ~72 hours
Description: as §1, §2, §3

| Substance | cytotoxicity (IC50) (HEK293T cells) | cytotoxicity (IC50) (F9 teratocarcinoma cells) | cytotoxicity (IC50) (HL60 cells) | t1/2 thiazolidine (fluorescein release half-life) (pH 6.6) [h] | t1/2 thiazolidine (fluorescein release half-life) (pH 7.4) [h] |
| --- | --- | --- | --- | --- | --- |
| Cemadotin | sub-nanomolar | sub-nanomolar | sub-nanomolar |  |  |
| BSA-fluorescein conjugate: BSA conjugated to carboxyfluorescein by the thiazolidine linker |  |  |  | 37 | 44 |
